Test [1] is filed under the species Cavia porcellus. Briefly: The compound was tested for the agonistic activity of contractile activities of Guinea pig ileum. The format is functional.
The species named for test [2] is Cavia porcellus. Kind of test: The compound was tested for the agonistic activity of amylase secretion by Guinea pig acini. The format is functional.

Starred links: 1 amine or outer side, 2 acyl side, 3 side chain; linkers in the order of their positions; H or OH if unused. Non-standard residues stand in square brackets, D forms with d. Residues, ends and D or L forms follow the SMILES beside them. Phe(4-CH2SO3H) = N[C@@H](Cc1ccc(CS(=O)(=O)O)cc1)C(=O)O; X1 = O=C([C@@H](Cc1ccc(CS(=O)(=O)O)cc1)N[*:1])[*:2]; Nle = CCCC[C@H](N)C(=O)O

By EC50 is commonly meant the concentration giving half of the maximal effect. Read a low EC50 as a more potent agent.

On to `CCCC[C@H](NC(=O)[C@H](Cc1c[nH]c2ccccc12)NC(=O)CNC(=O)[C@H](CCCC)NC(=O)[C@@H](Cc1ccc(OS(=O)(=O)O)cc1)NC(=O)OC(C)(C)C)C(=O)N[C@@H](CC(=O)O)C(=O)N[C@@H](Cc1ccccc1)C(N)=O`, for which the EC50 in test [1] is 28 nM; in test [2], 4.5 nM. On to `CCCC[C@H](NC(=O)[C@H](Cc1c[nH]c2ccccc12)NC(=O)CNC(=O)[C@H](CCCC)NC(=O)[C@@H](Cc1ccc(CS(=O)(=O)O)cc1)NC(C)=O)C(=O)N[C@@H](CC(=O)O)C(=O)N[C@@H](Cc1ccccc1)C(N)=O` (Ac-[X1][Nle]GW[Nle]DF-NH2), for which the figures for the EC50 in test [1] and in test [2] were 17 nM and 1.6 nM, respectively.

For the compound `CSCC[C@H](NC(=O)[C@H](Cc1ccc(OS(=O)(=O)O)cc1)NC(=O)[C@@H](N)CC(=O)O)C(=O)NCC(=O)N[C@@H](Cc1c[nH]c2ccccc12)C(=O)N[C@@H](CCSC)C(=O)N[C@@H](CC(=O)O)C(=O)N[C@@H](Cc1ccccc1)C(N)=O` [SINCALIDE], the concentration for a half-maximal effect (EC50) in test [2] amounted to 0.1 nM. In the case of `CCCC[C@H](NC(=O)[C@H](Cc1ccc(CS(=O)(=O)O)cc1)NC(C)=O)C(=O)NCC(=O)N[C@@H](Cc1c[nH]c2ccccc12)C(=O)N[C@@H](CCCC)C(=O)N[C@@H](CC(=O)O)C(=O)N[C@@H](Cc1ccccc1)C(N)=O` (Ac-[Phe(4-CH2SO3H)][Nle]GW[Nle]DF-NH2), the EC50 in test [1] was 3.8 nM; in test [2] it was 0.33 nM. In turn, `CCCC[C@H](NC(=O)[C@H](Cc1ccc(OS(=O)(=O)O)cc1)NC(=O)OC(C)(C)C)C(=O)NCC(=O)N[C@@H](Cc1c[nH]c2ccccc12)C(=O)N[C@@H](CCCC)C(=O)N[C@@H](CC(=O)O)C(=O)N[C@@H](Cc1ccccc1)C(N)=O` returned an EC50 in test [2] of 0.28 nM.

(Values after ChEMBL document CHEMBL1124398, “Full agonists of CCK8 containing a nonhydrolyzable sulfated tyrosine residue” (J Med Chem, 1989).)
